According to ChEMBL document CHEMBL4680146, “Current progress in antimalarial pharmacotherapy and multi-target drug discovery” (Eur J Med Chem, 2020):
In brackets after ≈: the same amount, converted by molar mass. One block for each compound: values may come before it.

Key:
Plasmodium falciparum [1] = test: Antimalarial activity against chloroquine-sensitive Plasmodium falciparum 3D7 infected in human red blood cells incubated for 48 hrs by [3H]-hypoxanthine incorporation assay; type: functional, organism-based, RBC; conditions: 3D7, Erythrocyte
Falcipain 2 = molecular target: T1, Falcipain 2 (Plasmodium falciparum, UniProt Q9N6S8); test: Inhibition of Plasmodium falciparum FP-2
T1 sequence (Q9N6S8 whole entry): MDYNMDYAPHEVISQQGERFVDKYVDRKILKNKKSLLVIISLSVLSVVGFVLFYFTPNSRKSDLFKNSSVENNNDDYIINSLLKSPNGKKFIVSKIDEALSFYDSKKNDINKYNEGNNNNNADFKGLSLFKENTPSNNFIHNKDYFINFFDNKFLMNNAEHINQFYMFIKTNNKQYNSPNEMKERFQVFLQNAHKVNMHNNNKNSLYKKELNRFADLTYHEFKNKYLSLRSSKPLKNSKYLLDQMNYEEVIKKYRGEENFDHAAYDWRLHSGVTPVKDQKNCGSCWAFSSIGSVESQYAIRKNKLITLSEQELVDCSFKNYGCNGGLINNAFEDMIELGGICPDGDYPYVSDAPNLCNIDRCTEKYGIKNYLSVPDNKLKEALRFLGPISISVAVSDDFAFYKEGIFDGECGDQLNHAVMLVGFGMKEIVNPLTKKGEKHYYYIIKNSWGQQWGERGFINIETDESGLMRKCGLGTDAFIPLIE

[2] = Inhibition of Plasmodium falciparum DHFR
Plasmodium falciparum [3] = test: Antimalarial activity against chloroquine-resistant Plasmodium falciparum Dd2; type: functional, organism-based
[4] = Inhibition of Plasmodium falciparum DHODH expressed in Escherichia coli BL21(DE3) using L-dihydroorotate as substrate measured every 90 secs for 45 mins by absorbance method
Plasmodium falciparum [5] = test: Antimalarial activity against ring stage Plasmodium falciparum 3D7 measured for 72 hrs by absorbance method; type: functional, organism-based; conditions: 3D7, 72 h
Plasmodium falciparum [6] = test: Antimalarial activity against trophozoite stage Plasmodium falciparum 3D7 harboring NLuc infected in human erythrocytes assessed as inhibition of new permeability pathway by measuring infected erythrocytes sensitivity to sorbitol-mediated lysis by luminescence method; type: functional, organism-based; conditions: 3D7, Erythrocyte
Hemozoin = test: Inhibition of beta-hematin assessed as heme alkylation at 2 molar equivalents incubated for 30 mins by HPLC analysis relative to control; set-up: scale not given: the % may be the effect or the level left
Plasmodium falciparum [7] = test: Antimalarial activity against chloroquine-sensitive Plasmodium falciparum F32(CQS)Tanzania incubated for 48 hrs by classical radioactive microdilution method; type: functional, organism-based
Plasmodium falciparum [8] = test: Antimalarial activity against chloroquine-sensitive Plasmodium falciparum 3D7 by SyBR Green method
Plasmodium vivax [9] = test: Antimalarial activity against Plasmodium vivax infected in human blood incubated for 24 to 36 hrs; type: functional, organism-based
Plasmodium falciparum [10] = test: Antimalarial activity against multi-resistant Plasmodium falciparum infected in human erythrocytes assessed as inhibition of [G-3H]hypoxanthine uptake incubated for 42 hrs by liquid scintillation counting method; type: functional, organism-based; conditions: Erythrocyte
Plasmodium falciparum [11] = test: Antimalarial activity against chloroquine-resistant Plasmodium falciparum K1 infected in human erythrocytes assessed as inhibition of [G-3H]hypoxanthine uptake preincubated for 24 hrs followed by [G-3H]hypoxanthine addition and measured after 18 to 24 hrs by scintillation spectrometry; type: functional, organism-based; conditions: K1, Erythrocyte
Plasmodium falciparum [12] = test: Antimalarial activity against chloroquine-resistant Plasmodium falciparum T996 infected in human erythrocytes assessed as inhibition of [G-3H]hypoxanthine uptake preincubated for 24 hrs followed by [G-3H]hypoxanthine addition and measured after 18 to 24 hrs by scintillation spectrometry; type: functional, organism-based; conditions: T996, Erythrocyte
Plasmodium falciparum [13] = test: Antimalarial activity against Plasmodium falciparum 3D7A asexual forms assessed as inhibition of [G-3H]hypoxanthine uptake incubated for 24 hrs followed by [G-3H]hypoxanthine addition and measured after 18 hrs by liquid scintillation spectrometry; type: functional, organism-based
Plasmodium falciparum [14] = test: Antimalarial activity against Plasmodium falciparum infected in human erythrocytes assessed as inhibition of [G-3H]hypoxanthine uptake incubated for 42 hrs by liquid scintillation spectrometry; type: functional, organism-based; conditions: Erythrocyte
Plasmodium falciparum [15] = test: Antimalarial activity against Plasmodium falciparum 3D7 asexual forms incubated for 72 hrs by luminescence method; type: functional, organism-based; conditions: 3D7, 72 h
Plasmodium vivax [16] = test: Antimalarial activity against Plasmodium vivax infected in human blood incubated for 40 to 44 hrs; type: functional, organism-based

Structure (SMILES): C[C@@H]1CC[C@H]2[C@@H](C)C(OCCN3CC[N+](CCNc4ccnc5cc(Cl)ccc45)(CCOC4O[C@@H]5O[C@@]6(C)CC[C@H]7[C@H](C)CC[C@@H]([C@H]4C)[C@@]57OO6)CC3)O[C@@H]3O[C@@]4(C)CC[C@@H]1[C@]32OO4 (some centres undefined)
IC50 (Plasmodium falciparum [1]): 0.0295 µM

Structure (SMILES): Nc1ncc(NCc2ccc(CCNC(=O)c3ccc(F)cc3)cc2)c(N)n1
IC50 (Falcipain 2): 6.8 µM
IC50 [2]: 8.8 µM
IC50 (Plasmodium falciparum [3]): 1.1 µM

Structure (SMILES): C[C@@H]1CC[C@H]2[C@@H](C)C(OCCN(CCCNc3ccnc4cc(Cl)ccc34)CCOC3O[C@@H]4O[C@@]5(C)CC[C@H]6[C@H](C)CC[C@@H]([C@H]3C)[C@@]46OO5)O[C@@H]3O[C@@]4(C)CC[C@@H]1[C@]32OO4 (some centres undefined)
IC50 (Plasmodium falciparum [1]): 0.0087 µM

Structure (SMILES): COc1cccc(NC(=O)CSc2nc(-c3ccccc3Cl)ns2)c1
EC50 [4]: 158 µM
EC50 (Plasmodium falciparum [5]): 2.48 µM
EC50 (Plasmodium falciparum [6]): 0.367 µM

Structure (SMILES): O=C(Nc1ccc(-c2cn3ccsc3n2)cc1)c1ccc(S(=O)(=O)N2CCCCCC2)cc1
EC50 [4]: > 250 µM
EC50 (Plasmodium falciparum [6]): 0.222 µM

Structure (SMILES): CC(C)C1=C[C@H]2OC3(CCC(NCCNc4ccnc5cc(Cl)ccc45)CC3)OO[C@@]2(C)CC1 (some centres undefined)
Activity (Hemozoin): 60%

Structure (SMILES): C[C@@H]1CC[C@H]2[C@@H](C)C(=O)O[C@@H]3O[C@@]4(C)CC[C@@H]1[C@]32OO4 [ARTEMISININ]
IC50 (Plasmodium falciparum [7]): 0.007 µM

Structure (SMILES): C[C@H]1[C@H](OC(=O)CCC(=O)O)O[C@@H]2O[C@@]3(C)CC[C@H]4[C@H](C)CC[C@@H]1[C@@]24OO3 [ARTESUNATE]
IC50 (Plasmodium falciparum [8]): 0.002 µM

IC50 (Plasmodium vivax [9]): 1.62 µM
Structure (SMILES): Nc1ccc(S(=O)(=O)c2ccc(N)cc2)cc1 [DAPSONE]

Structure (SMILES): C[C@H]1c2cccc(O)c2C(=O)C2=C(O)[C@]3(O)C(=O)C(C(N)=O)=C(O)[C@@H](N(C)C)[C@@H]3[C@@H](O)[C@@H]21 [DOXYCYCLINE]
IC50 (Plasmodium falciparum [10]): 5.1 µM

Structure (SMILES): CCN(CCO)CCCC(C)Nc1ccnc2cc(Cl)ccc12 (centres undefined) [HYDROXYCHLOROQUINE]
IC50 (Plasmodium falciparum [11]): 2.22 µM
IC50 (Plasmodium falciparum [12]): 0.0215 µM

IC50 (Plasmodium falciparum [13]): 0.0032 µM
Structure (SMILES): CCCCN(CCCC)CC(O)c1cc(Cl)cc2c1-c1ccc(Cl)cc1/C2=C/c1ccc(Cl)cc1 (centres undefined) [LUMEFANTRINE]

IC50 (Plasmodium falciparum [14]): 0.0813 µM
Structure (SMILES): Clc1ccc2c(N3CCN(CCCN4CCN(c5ccnc6cc(Cl)ccc56)CC4)CC3)ccnc2c1 [PIPERAQUINE]

IC50 (Plasmodium falciparum [13]): > 10 µM
Structure (SMILES): COc1cc(NC(C)CCCN)c2ncccc2c1 (centres undefined) [PRIMAQUINE]

Structure (SMILES): CCc1nc(N)nc(N)c1-c1ccc(Cl)cc1 [PYRIMETHAMINE]
IC50 (Plasmodium falciparum [15]): 0.00435 µM
IC50 (Plasmodium falciparum [3]): > 10 µM

Structure (SMILES): C=C[C@H]1CN2CC[C@H]1C[C@H]2[C@H](O)c1ccnc2ccc(OC)cc12 [QUININE]
IC50 (Plasmodium falciparum [13]): 0.066 µM

IC50 (Plasmodium vivax [16]): 0.01 mg/L (≈ 0.0322 µM)
Structure (SMILES): COc1ncnc(NS(=O)(=O)c2ccc(N)cc2)c1OC [SULFADOXINE]
